The values below come from patent publication US20220323406A1, “METHODS AND COMPOSITIONS FOR DIFFERENTIATING STEM CELLS” (Massachusetts Institute of Technology, priority 2019, published 2022).

Structures can show the parent of a compound that is named as a salt.

Common to all, as to conditions: primary screen
Test [1] concerns ENR+CD organoids (ISC to Paneth cell differentiation). In words: Primary screen: CCh-stimulated lysozyme secretion LYZ.S, 2.5-D 384-well ENR+CD organoid differentiation. In kind it is cell-based, mouse. From the text:
(§1) High-throughput screening.

The test system is the same in test [2]. In words: Primary screen: basal (non-stimulated) lysozyme secretion LYZ.NS, 2.5-D 384-well ENR+CD organoid differentiation. In kind it is cell-based, mouse.
Description: as §1

Test [3] has as its system ENR+CD organoids. In words: Primary screen: ATP (CellTiter-Glo 3D, CTG) cell number/viability, 2.5-D 384-well ENR+CD organoids.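 Note: compounds given at plating and again on day 3 over a 6-day differentiation from ENR+CV stem-cell-enriched precursors, ATP measured on day 6, plate median as control.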

Regarding `Oc1ccc2ccccc2c1SSc1c(O)ccc2ccccc12` [IPA-3], the “Dose.FC.LYZ.S (log2 fold change)” value is 0.064 in test [1] (dose 0.08 uM), −0.031 in test [1] (dose 0.40 uM), 0.067 in test [1] (dose 2.00 uM) and −0.054 in test [1] (dose 10.00 uM). Also, the “Dose.FC.LYZ.NS (log2 fold change)” value in test [2] (dose 0.08 uM) was 0.004; in test [2] (dose 0.40 uM), 0.003; in test [2] (dose 2.00 uM), −0.001; in test [2] (dose 10.00 uM), −0.021. Besides, the “Z.LYZ.NS (standard z score)” value in test [2] (dose 0.08 uM) was 0.031; in test [2] (dose 0.40 uM), 0.028; in test [2] (dose 2.00 uM) it was −0.010; in test [2] (dose 10.00 uM), −0.186. In addition, the “Dose.FC.CTG (log2 fold change)” value in test [3] (dose 0.08 uM) is 0.219; in test [3] (dose 0.40 uM), −0.332; in test [3] (dose 2.00 uM), −0.084; in test [3] (dose 10.00 uM) it was −0.054. The “Z.CTG (standard z score)” value in test [3] (dose 0.08 uM) is 0.524; in test [3] (dose 0.40 uM), −0.793; in test [3] (dose 2.00 uM) it was −0.202; in test [3] (dose 10.00 uM), −0.128.
As for `C=CC(=O)N1CCC[C@@H](n2nc(-c3ccc(Oc4ccccc4)cc3)c3c(N)ncnc32)C1` [Ibrutinib (PCI-32765)], the “Dose.FC.LYZ.S (log2 fold change)” value is −0.139 in test [1] (dose 0.08 uM), −0.206 in test [1] (dose 0.40 uM) and −0.312 in test [1] (dose 10.00 uM). The “Z.LYZ.NS (standard z score)” value in test [2] (dose 0.08 uM) was −0.619; in test [2] (dose 0.40 uM), −1.225; in test [2] (dose 2.00 uM), −1.763; in test [2] (dose 10.00 uM), −1.737. Besides, the “Z.CTG (standard z score)” value in test [3] (dose 0.08 uM) is given as −0.065; in test [3] (dose 0.40 uM), −1.112; in test [3] (dose 2.00 uM) it was −1.244; in test [3] (dose 10.00 uM), −2.224.
Regarding `C#Cc1cccc(Nc2ncnc3cc4c(cc23)OCCOCCOCCO4)c1` [Icotinib], the “Dose.FC.LYZ.S (log2 fold change)” value is 0.094 in test [1] (dose 0.08 uM), −0.090 in test [1] (dose 0.40 uM), −0.243 in test [1] (dose 2.00 uM) and −0.419 in test [1] (dose 10.00 uM). The “Dose.FC.LYZ.NS (log2 fold change)” value in test [2] (dose 0.08 uM) is given as 0.029; in test [2] (dose 0.40 uM) it was −0.073; in test [2] (dose 2.00 uM), −0.133; in test [2] (dose 10.00 uM) it was −0.289. The “Z.LYZ.NS (standard z score)” value in test [2] (dose 0.08 uM) is given as 0.255; in test [2] (dose 0.40 uM), −0.632; in test [2] (dose 2.00 uM) it was −1.160; in test [2] (dose 10.00 uM), −2.518. The “Dose.FC.CTG (log2 fold change)” value was −0.020 in test [3] (dose 0.08 uM), −0.061 in test [3] (dose 0.40 uM), −0.406 in test [3] (dose 2.00 uM) and −1.068 in test [3] (dose 10.00 uM).
On to `CNC(=O)[C@H](Cc1c[nH]c2ccccc12)NC(=O)[C@@H](CC(=O)NO)CC(C)C` [Ilomastat (GM6001, Galardin)], for which the “Dose.FC.LYZ.S (log2 fold change)” value in test [1] (dose 0.08 uM) is listed as 0.214; in test [1] (dose 0.40 uM), 0.117; in test [1] (dose 2.00 uM) it was 0.024; in test [1] (dose 10.00 uM) it was −0.078. The “Dose.FC.LYZ.NS (log2 fold change)” value is 0.055 in test [2] (dose 0.08 uM), −0.011 in test [2] (dose 0.40 uM), 0.007 in test [2] (dose 2.00 uM) and −0.106 in test [2] (dose 10.00 uM). Moreover, the “Z.LYZ.NS (standard z score)” value in test [2] (dose 0.08 uM) is given as 0.482; in test [2] (dose 0.40 uM) it was −0.092; in test [2] (dose 2.00 uM), 0.064; in test [2] (dose 10.00 uM), −0.919. Further, the “Dose.FC.CTG (log2 fold change)” value was 0.197 in test [3] (dose 0.08 uM), 0.163 in test [3] (dose 0.40 uM), 0.091 in test [3] (dose 2.00 uM) and −0.110 in test [3] (dose 10.00 uM). In addition, the “Z.CTG (standard z score)” value in test [3] (dose 0.08 uM) is listed as 0.470; in test [3] (dose 0.40 uM) it was 0.389; in test [3] (dose 2.00 uM), 0.216; in test [3] (dose 10.00 uM) it was −0.264.
As to `Cc1ccc(NC(=O)c2ccc(CN3CCN(C)CC3)cc2)cc1Nc1nccc(-c2cccnc2)n1` [Imatinib (STI571)], the “Dose.FC.LYZ.S (log2 fold change)” value in test [1] (dose 0.08 uM) is on record as 0.000; in test [1] (dose 0.40 uM), 0.038; in test [1] (dose 2.00 uM) it was −0.001; in test [1] (dose 10.00 uM), −0.037. For the same compound, the “Dose.FC.LYZ.NS (log2 fold change)” value in test [2] (dose 0.08 uM) is recorded as 0.033; in test [2] (dose 0.40 uM) it was 0.012; in test [2] (dose 2.00 uM), 0.025; in test [2] (dose 10.00 uM) it was −0.038. The “Z.LYZ.NS (standard z score)” value in test [2] (dose 0.08 uM) is on record as 0.284; in test [2] (dose 0.40 uM) it was 0.104; in test [2] (dose 2.00 uM) it was 0.217; in test [2] (dose 10.00 uM), −0.333. The “Dose.FC.CTG (log2 fold change)” value in test [3] (dose 0.08 uM) is listed as −0.150; in test [3] (dose 0.40 uM), 0.079; in test [3] (dose 2.00 uM), 0.056; in test [3] (dose 10.00 uM) it was −0.034. The “Z.CTG (standard z score)” value is listed as −0.357 in test [3] (dose 0.08 uM), 0.188 in test [3] (dose 0.40 uM), 0.135 in test [3] (dose 2.00 uM) and −0.082 in test [3] (dose 10.00 uM).
With `CCOC(=O)[C@H](CCc1ccccc1)N[C@@H](C)C(=O)N1C(=O)N(C)C[C@H]1C(=O)O` [Imidapril HCl], the “Dose.FC.LYZ.S (log2 fold change)” value in test [1] (dose 0.08 uM) is −0.042; in test [1] (dose 0.40 uM), 0.109; in test [1] (dose 2.00 uM) it was −0.035; in test [1] (dose 10.00 uM), −0.075. Also, the “Dose.FC.LYZ.NS (log2 fold change)” value is on record as −0.006 in test [2] (dose 0.08 uM), 0.000 in test [2] (dose 0.40 uM), 0.014 in test [2] (dose 2.00 uM) and −0.081 in test [2] (dose 10.00 uM). For the same compound, the “Z.LYZ.NS (standard z score)” value in test [2] (dose 0.08 uM) is −0.049; in test [2] (dose 0.40 uM), 0.004; in test [2] (dose 2.00 uM), 0.121; in test [2] (dose 10.00 uM), −0.706. Also, the “Dose.FC.CTG (log2 fold change)” value is listed as −0.333 in test [3] (dose 0.08 uM), −0.148 in test [3] (dose 0.40 uM), −0.236 in test [3] (dose 2.00 uM) and −0.227 in test [3] (dose 10.00 uM).
For the compound `NC(=O)c1ccc(I)c([N+](=O)[O-])c1` [Iniparib (B5I-201)], in test [1] (dose 0.08 uM), the “Dose.FC.LYZ.S (log2 fold change)” value is reported as 0.032. In addition, in test [2] (dose 0.08 uM), the “Dose.FC.LYZ.NS (log2 fold change)” value was 0.042 and the “Z.LYZ.NS (standard z score)” value turned out to be 0.364. Besides, in test [3] (dose 0.08 uM), the “Dose.FC.CTG (log2 fold change)” value was 0.339 and the “Z.CTG (standard z score)” value is on record as 0.810.
Consider `NC(=O)c1ccc(I)c([N+](=O)[O-])c1` [Iniparib (BSI-201)], for which the “Dose.FC.LYZ.S (log2 fold change)” value in test [1] (dose 0.40 uM) is reported as 0.035; in test [1] (dose 2.00 uM), −0.001; in test [1] (dose 10.00 uM), −0.010. In addition, the “Dose.FC.LYZ.NS (log2 fold change)” value was 0.000 in test [2] (dose 0.40 uM), 0.016 in test [2] (dose 2.00 uM) and −0.016 in test [2] (dose 10.00 uM). Further, the “Z.LYZ.NS (standard z score)” value was 0.003 in test [2] (dose 0.40 uM), 0.138 in test [2] (dose 2.00 uM) and −0.139 in test [2] (dose 10.00 uM). Also, the “Dose.FC.CTG (log2 fold change)” value in test [3] (dose 0.40 uM) amounted to 0.181; in test [3] (dose 2.00 uM), 0.157; in test [3] (dose 10.00 uM) it was 0.244. Also, the “Z.CTG (standard z score)” value in test [3] (dose 0.40 uM) is on record as 0.432; in test [3] (dose 2.00 uM) it was 0.375; in test [3] (dose 10.00 uM), 0.583.
Consider `CCc1c2c(nc3ccc(OC(=O)N4CCC(N5CCCCC5)CC4)cc13)-c1cc3c(c(=O)n1C2)COC(=O)[C@]3(O)CC` [Irinotecan HCl Trihydrate], for which the “Dose.FC.LYZ.S (log2 fold change)” value in test [1] (dose 0.08 uM) was −0.040; in test [1] (dose 0.40 uM), −0.158; in test [1] (dose 2.00 uM), −0.293; in test [1] (dose 10.00 uM), −0.367. Further, the “Dose.FC.LYZ.NS (log2 fold change)” value in test [2] (dose 0.08 uM) was −0.019; in test [2] (dose 0.40 uM) it was −0.092; in test [2] (dose 2.00 uM) it was −0.221; in test [2] (dose 10.00 uM), −0.272. Further, the “Z.LYZ.NS (standard z score)” value in test [2] (dose 0.08 uM) is −0.162; in test [2] (dose 0.40 uM), −0.805; in test [2] (dose 2.00 uM) it was −1.925; in test [2] (dose 10.00 uM) it was −2.368. The “Dose.FC.CTG (log2 fold change)” value in test [3] (dose 0.08 uM) was −0.083; in test [3] (dose 0.40 uM), −0.205; in test [3] (dose 2.00 uM) it was −0.317; in test [3] (dose 10.00 uM), −0.588.
In the case of `CCc1c2c(nc3ccc(OC(=O)N4CCC(N5CCCCC5)CC4)cc13)-c1cc3c(c(=O)n1C2)COC(=O)[C@]3(O)CC` [Irinotecan], the “Dose.FC.LYZ.S (log2 fold change)” value in test [1] (dose 0.08 uM) is −0.004; in test [1] (dose 0.40 uM), −0.145; in test [1] (dose 2.00 uM), −0.247; in test [1] (dose 10.00 uM), −0.251. Also, the “Dose.FC.LYZ.NS (log2 fold change)” value is recorded as −0.031 in test [2] (dose 0.08 uM), −0.072 in test [2] (dose 0.40 uM), −0.170 in test [2] (dose 2.00 uM) and −0.163 in test [2] (dose 10.00 uM). The “Z.LYZ.NS (standard z score)” value is −0.272 in test [2] (dose 0.08 uM), −0.630 in test [2] (dose 0.40 uM), −1.476 in test [2] (dose 2.00 uM) and −1.417 in test [2] (dose 10.00 uM). The “Dose.FC.CTG (log2 fold change)” value in test [3] (dose 0.08 uM) is recorded as −0.111; in test [3] (dose 0.40 uM), −0.784; in test [3] (dose 2.00 uM), −0.785; in test [3] (dose 10.00 uM), −1.235.
